From patent publication US4734428A, “Aminoethylimidazole and cytoprotective and gastric antisecretory composition containing the same” (Jouveinal S.A., priority 1984, dated 1988)
Read-outs that look alike come from different tables or passages of the source.

Assays:
[1] = acute toxicity (LD50, mice); settings: mouse, in vivo, 14 days
Procedure: The acute toxicity of the products was investigated in male SWISS/IOPS mice weighing approximately 22 g. The 50% lethal dose (LD50) was calculated by the method of L. J. REED and H. MUNCH (Am. J. Hyg. 1939-37-493) 14 days following the […] treatment of batches of 10 animals per dose and on the basis of 4 to 6 doses per product. The results of this investigation are given in table 3 for the products of examples 1 to 8 and in table 4 for the products of examples 9 to 12.

gastric mucosa = experiment: cytoprotection test, gastric ulceration caused by absolute ethanol; type: in vivo, Sprague Dawley rats; settings: rat; for ED50 values relative to the two routes compared: oral versus parenteral (s.c.) route
Procedure: The cytoprotective activity was investigated in connection with the stressing of the gastric mucosa caused by ethanol.
The cytoprotection test was carried out in accordance with the procedure described by A. ROBERT et al (Gastroenterology 1979-77-433). Batches of six male Sprague Dawley rats, which had not received solid food for 24 hours before the test, received by the oral route 1 ml/rat of absolute ethanol, after receiving the product to be tested 30 minutes beforehand by the subcutaneous […] 1 hour beforehand by the oral route. One hour after ingesting the ethanol, the rats were killed by stretching and their stomachs were carefully removed, opened along the greater curvature, washed under running water and spread out. The ulcerations were then marked and measured under a binocular lamp. An index representing the sum of the lengths of the ulcers is then determined for each rat and the mean value of these indexes for each batch is calculated and compared with that of the control batch using the Student "t" test. The 50% effective dose (ED50) is then graphically determined when possible. In other cases, the percentage inhibition obtained with the aid of the maximum tested dose is given. The results are given in table 5 for the products of examples 1 to 8 and in table 6 for the products of examples 9 to 12.

thromboxane synthetase [2] = molecular target: T1, thromboxane synthetase (Oryctolagus cuniculus, UniProt G1TAZ9); experiment: inhibition of TXB2 synthesis (thromboxane synthetase) in washed rabbit platelets; type: cell-based; settings: for activity relative to 1-benzyl imidazole: reference 1-benzyl imidazole
T1 construct: carried out in vitro on washed rabbit platelets; endogenous in cells; host or cells: washed rabbit platelets
T1 sequence (G1TAZ9 1-530): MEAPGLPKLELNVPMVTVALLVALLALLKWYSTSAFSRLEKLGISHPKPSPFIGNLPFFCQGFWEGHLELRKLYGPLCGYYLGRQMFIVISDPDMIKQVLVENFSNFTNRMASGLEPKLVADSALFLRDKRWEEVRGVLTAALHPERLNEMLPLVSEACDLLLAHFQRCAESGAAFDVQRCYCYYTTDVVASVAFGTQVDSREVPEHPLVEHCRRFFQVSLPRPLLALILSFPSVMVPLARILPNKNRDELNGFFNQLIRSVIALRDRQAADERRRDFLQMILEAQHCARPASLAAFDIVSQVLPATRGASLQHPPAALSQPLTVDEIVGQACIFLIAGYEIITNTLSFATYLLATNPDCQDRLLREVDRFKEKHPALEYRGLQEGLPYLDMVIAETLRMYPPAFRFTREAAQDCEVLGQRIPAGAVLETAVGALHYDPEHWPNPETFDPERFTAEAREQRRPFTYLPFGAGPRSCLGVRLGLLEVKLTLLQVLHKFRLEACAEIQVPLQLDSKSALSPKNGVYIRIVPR
Procedure: (§1) The test performed was carried out in vitro on washed rabbit platelets. It was based on the publications of NEEDLEMAN (1977. Proc. Natl. Acad. Sci. 74, 1716) and SALMON (1982, Cardiovascular Pharmacol. of the Prostaglandins--Raven Press N.Y. pp. 7 to 22). It makes it possible both to determine the reduction of the synthesis of TXB2 and also the possible increase of the synthesis of PGE2. Thus, it is possible to determine the activity of the products on the PG:TX ratio.
(§2) The results given in the following tables are expressed in CEx%, i.e. in micromolar concentrations per liter permitting an inhibition by x% of the synthesis of TXB2. In the adjacent column, the symbol + means that the effect also causes an increase in the synthesis of PGE2.

synthesis of PGE2 = experiment: increase of PGE2 synthesis in washed rabbit platelets; type: cell-based; design: key: +: the effect also causes an increase in the synthesis of PGE2; settings: in vitro
Procedure: as §1, §2

thromboxane synthetase [3] = settings: human platelets; literature; cited from earlier work
[4] = oral route, read-out: LD50 % oral route
[5] = sc, s.c. route, 30 minutes before absolute ethanol, read-out: ED50% s.c. route
[6] = washed rabbit platelets, in vitro, 50% inhibition of TXB2 synthesis, read-out: Inh. TX B2 CE50%
[7] = ip, read-out: LD50 % i.p. route
[8] = oral route, 1 hour before absolute ethanol, read-out: ED50% oral route

| Structure (SMILES) | LD50 at 336 h [1, 4] | ED50 (gastric mucosa; [5]) | IC50 (thromboxane synthetase [2]; [6]) | Incr. PGE2 (synthesis of PGE2) | LD50 at 336 h [1, 7] | other results |
| --- | --- | --- | --- | --- | --- | --- |
| CCC(Cn1ccnc1)(c1ccccc1)N(C)C (single isomer, unassigned) [EX. 12, 1-[(2-phenyl-2-ethyl)-2-N,N-dimethylaminoethyl]-imidazole] | 780 mg/kg | 5.3 mg/kg | 11.3 µM | + |  |  |
| c1ccc(Cn2ccnc2)cc1 [1-Benzyl-Imidazole, 1-benzyl imidazole, reference compound] |  |  |  |  |  | IC50 (thromboxane synthetase [2]): 13.4 µM; thromboxane synthetase inhibition in words (thromboxane synthetase [3]): thromboxane synthetase inhibitor |
| COc1ccc(CC(C)(Cn2ccnc2)N(C)C)cc1 (stereo not drawn) [EX. 9, 1-[(2-p-methoxybenzyl-2-methyl)-2-N,N-dimethylaminoethyl]imidazole dihemimaleate] | 758 mg/kg |  | 4.5 µM | + | 231 mg/kg | activity relative to 1-benzyl imidazole (thromboxane synthetase [2]; washed rabbit platelets): equal to clearly superior activity |
| CN(C)C(C)(COc1ccc(Cl)cc1)Cn1ccnc1 (stereo not drawn) [EX. 10] | 86 mg/kg | 10 mg/kg | 13.2 µM | + | 32 mg/kg |  |
| CN(C)C(C)(Cn1ccnc1)c1ccc(-c2ccccc2)cc1 (stereo not drawn) [EX. 11] | 183 mg/kg |  | 11.2 µM | + |  | ED40 (gastric mucosa; sc, s.c. route, 30 minutes before absolute ethanol): 10 mg/kg |
| CCC(Cn1ccnc1)(c1ccccc1)N(C)C (stereo not drawn) [Ex. 1A, 1-[(2-phenyl-2-ethyl)-2-N,N-dimethylaminoethyl]-imidazole] | 559 mg/kg | 11 mg/kg | 3.7 µM | + | 326 mg/kg | ED50 (gastric mucosa; [8]): 13 mg/kg; ED50 values relative to the two routes compared (gastric mucosa): roughly equivalent; activity relative to 1-benzyl imidazole (thromboxane synthetase [2]; washed rabbit platelets): equal to clearly superior activity |
| CCC(CN(C)C)(c1ccccc1)n1ccnc1 (stereo not drawn) [Ex. 1B, 1-[(1-phenyl-1-ethyl)-2-N,N-dimethylaminoethyl]-imidazole] | 285 mg/kg | 8.1 mg/kg | 17.4 µM | + | 145 mg/kg | ED50 (gastric mucosa; [8]): 7.1 mg/kg; ED50 values relative to the two routes compared (gastric mucosa): roughly equivalent |
| CCC(Cn1ccnc1C)(c1ccccc1)N(C)C (stereo not drawn) [Ex. 2A, 1-[(2-phenyl-2-ethyl)-2-N,N-dimethylaminoethyl]-2-methylimidazole] | 500 mg/kg | 12.6 mg/kg |  |  | 157 mg/kg | ED50 (gastric mucosa; [8]): 12 mg/kg; ED50 values relative to the two routes compared (gastric mucosa): roughly equivalent; IC10 (thromboxane synthetase [2]; washed rabbit platelets, in vitro, 10% inhibition of TXB2 synthesis, read-out: Inh. TX B2 CE10%): 50 µM |
| CCC(CN(C)C)(c1ccccc1)n1ccnc1C (stereo not drawn) [Ex. 2B, 1-[(1-phenyl-1-ethyl)-2-N,N-dimethylaminoethyl]-2-methylimidazole] | 393 mg/kg | 10 mg/kg |  |  | 137 mg/kg | ED50 (gastric mucosa; [8]): 12 mg/kg; ED50 values relative to the two routes compared (gastric mucosa): roughly equivalent; IC18 (thromboxane synthetase [2]; washed rabbit platelets, in vitro, 18% inhibition of TXB2 synthesis, read-out: Inh. TX B2 CE18%): 50 µM |
| CCC(Cn1cnc(-c2ccccc2)c1-c1ccccc1)(c1ccccc1)N(C)C (stereo not drawn) [Ex. 3A] | > 1150 mg/kg |  |  |  |  |  |
| CCC(CN(C)C)(c1ccccc1)n1cnc(-c2ccccc2)c1-c1ccccc1 (stereo not drawn) [Ex. 3B] | > 1150 mg/kg |  |  |  |  | ED50 (gastric mucosa; [8]): 26 mg/kg |
| CCc1nc(C)cn1C(CC)(CN(C)C)c1ccccc1 (stereo not drawn) [Ex. 4B] | 298 mg/kg | 4 mg/kg |  |  | 47 mg/kg |  |
| CCC(Cn1ccnc1-c1ccccc1)(c1ccccc1)N(C)C (stereo not drawn) [Ex. 5A] |  |  | 50 µM |  |  |  |
| CCC(CN(C)C)(c1ccccc1)n1ccnc1-c1ccccc1 (stereo not drawn) [Ex. 5B] | 840 mg/kg |  |  |  |  | IC20 (thromboxane synthetase [2]; washed rabbit platelets, in vitro, 20% inhibition of TXB2 synthesis, read-out: Inh. TX B2 CE20%): 50 µM |
| CN(C)C(C)(C)Cn1ccnc1 [Ex. 6A] | > 1180 mg/kg |  |  |  |  | IC41 (thromboxane synthetase [2]; washed rabbit platelets, in vitro, 41% inhibition of TXB2 synthesis, read-out: Inh. TX B2 CE41%): 50 µM |
| CN(C)CC(C)(C)n1ccnc1 [Ex. 6B] | > 1180 mg/kg |  | 50 µM |  |  |  |
| CCC(Cc1ccccc1)(Cn1ccnc1)N(C)C (stereo not drawn) [Ex. 7A] | 480 mg/kg | 26.6 mg/kg | < 1 µM | + |  |  |
| CCC(Cc1ccccc1)(CN(C)C)n1ccnc1 (stereo not drawn) [Ex. 7B] | 384 mg/kg | 8.5 mg/kg |  |  |  | IC35 (thromboxane synthetase [2]; washed rabbit platelets, in vitro, 35% inhibition of TXB2 synthesis, read-out: Inh. TX B2 CE35%): 100 µM |
| CCCCCC(Cn1ccnc1)(c1ccccc1)N(C)C (stereo not drawn) [Ex. 8A] | 287 mg/kg | 25 mg/kg | 0.56 µM | + |  | activity relative to 1-benzyl imidazole (thromboxane synthetase [2]; washed rabbit platelets): equal to clearly superior activity |
| CCCCCC(CN(C)C)(c1ccccc1)n1ccnc1 (stereo not drawn) [Ex. 8B] | 562 mg/kg | 9 mg/kg | 2.15 µM | + | 346 mg/kg | activity relative to 1-benzyl imidazole (thromboxane synthetase [2]; washed rabbit platelets): equal to clearly superior activity |
